# Source: US9539256B2 (THE BOARD OF REGENTS OF THE UNIVERSITY OF TEXAS SYSTEM, priority 2012, dated 2017)
# Entries after “also recorded” stand apart in the source; their conditions may differ.
# How the values were obtained:
# EPAC2 = molecular target: T1, EPAC2 (Mus musculus, UniProt Q9EQZ6); test: 8-NBD-cAMP competition binding to EPAC2
# T1 sequence (Q9EQZ6 1-1011): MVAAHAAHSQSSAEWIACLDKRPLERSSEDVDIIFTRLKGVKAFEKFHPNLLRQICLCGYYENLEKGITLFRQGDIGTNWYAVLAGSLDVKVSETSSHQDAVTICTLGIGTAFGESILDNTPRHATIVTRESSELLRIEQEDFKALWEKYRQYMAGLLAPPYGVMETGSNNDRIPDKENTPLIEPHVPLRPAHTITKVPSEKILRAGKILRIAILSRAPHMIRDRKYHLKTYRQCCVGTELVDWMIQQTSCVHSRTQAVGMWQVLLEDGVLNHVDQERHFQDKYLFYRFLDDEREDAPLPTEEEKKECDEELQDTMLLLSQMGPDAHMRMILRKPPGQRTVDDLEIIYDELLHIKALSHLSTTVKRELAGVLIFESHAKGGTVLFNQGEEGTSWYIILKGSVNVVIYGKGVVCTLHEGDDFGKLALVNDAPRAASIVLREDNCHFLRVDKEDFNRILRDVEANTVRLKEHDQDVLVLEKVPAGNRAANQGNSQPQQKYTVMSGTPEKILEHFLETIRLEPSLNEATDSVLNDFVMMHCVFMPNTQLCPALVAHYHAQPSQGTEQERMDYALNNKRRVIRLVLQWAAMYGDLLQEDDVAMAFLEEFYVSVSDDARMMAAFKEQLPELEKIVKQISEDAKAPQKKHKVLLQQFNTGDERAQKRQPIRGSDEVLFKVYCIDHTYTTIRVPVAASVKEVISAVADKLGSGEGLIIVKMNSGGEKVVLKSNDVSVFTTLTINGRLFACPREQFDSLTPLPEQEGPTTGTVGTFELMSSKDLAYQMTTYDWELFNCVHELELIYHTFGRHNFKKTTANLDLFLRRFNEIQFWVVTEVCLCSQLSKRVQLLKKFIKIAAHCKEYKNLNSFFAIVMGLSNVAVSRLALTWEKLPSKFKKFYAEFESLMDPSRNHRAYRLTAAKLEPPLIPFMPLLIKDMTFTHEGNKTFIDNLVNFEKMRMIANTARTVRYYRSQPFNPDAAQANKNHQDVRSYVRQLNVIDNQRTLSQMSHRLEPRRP
# Protocol: Primary screen is performed in black 96-well or 384-well microplates. As an example, 50 nM EPAC2 solution is prepared in 20 mM Tris buffer, pH 7.5, containing 150 mM NaCl, 1 mM EDTA, and 1 mM […]. […] Sample is dispensed into plate and test compounds added from 96-well mother plates. […] Fluorescence intensity signal from 8-NBD was recorded at room temperature (rt) before and after tested compounds are added using SpectaMaxM2 microplate reader (Molecular Devices, Silicon Valley, Calif., USA) with excitation/emission wavelengths set at 470/540 nm.
# EPAC1 = molecular target: T2, EPAC1 (Homo sapiens, UniProt O95398); test: Phosphorylation of Akt in HEK293/EPAC1 cells; assay type: cell-based; conditions: 10 μM for 5 min before 007-AM
# T2 sequence (O95398 1-923): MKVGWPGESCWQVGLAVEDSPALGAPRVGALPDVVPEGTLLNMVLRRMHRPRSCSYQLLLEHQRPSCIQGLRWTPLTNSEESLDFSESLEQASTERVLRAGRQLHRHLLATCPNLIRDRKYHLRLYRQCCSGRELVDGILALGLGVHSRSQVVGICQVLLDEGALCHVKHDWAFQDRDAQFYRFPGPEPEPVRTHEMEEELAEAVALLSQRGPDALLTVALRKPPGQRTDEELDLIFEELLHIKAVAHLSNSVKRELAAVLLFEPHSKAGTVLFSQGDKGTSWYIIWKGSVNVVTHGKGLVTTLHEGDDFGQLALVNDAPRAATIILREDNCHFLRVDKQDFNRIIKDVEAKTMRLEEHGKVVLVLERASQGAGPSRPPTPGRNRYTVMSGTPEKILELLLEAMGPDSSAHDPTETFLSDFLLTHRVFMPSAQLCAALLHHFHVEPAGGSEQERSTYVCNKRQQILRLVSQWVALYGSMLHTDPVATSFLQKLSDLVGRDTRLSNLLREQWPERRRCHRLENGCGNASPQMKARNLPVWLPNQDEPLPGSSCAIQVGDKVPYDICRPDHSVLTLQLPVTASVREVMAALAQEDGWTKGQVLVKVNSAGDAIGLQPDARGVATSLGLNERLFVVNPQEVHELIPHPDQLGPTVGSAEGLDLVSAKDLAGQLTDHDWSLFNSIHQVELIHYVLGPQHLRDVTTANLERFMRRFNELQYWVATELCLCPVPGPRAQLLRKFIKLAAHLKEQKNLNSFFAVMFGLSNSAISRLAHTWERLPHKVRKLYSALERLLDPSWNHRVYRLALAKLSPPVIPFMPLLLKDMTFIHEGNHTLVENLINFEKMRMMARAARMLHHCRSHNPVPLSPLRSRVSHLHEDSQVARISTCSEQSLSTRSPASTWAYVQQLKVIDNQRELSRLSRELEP
# Protocol: FIG. 10. Effect of ESI-09 on EPAC-mediated PKB phosphorylation in HEK293/EPAC1, HEK293/EPAC2, and human vascular smooth muscle (hVSMC) cells. Serum-starved HEK293/EPAC1, HEK293/EPAC2, and hVSMC cells with or without pretreatment of […] ESI-09 were stimulated with 10 μM 007-AM. Cell lysates were subjected to Western blot analysis as described under “Experimental Procedures” using anti-phospho-Ser473-specific (PKB-P473) and anti-phospho-Thr308-specific (PKB-P308) PKB antibodies.
# Cellular proteins from cell lysates treated with various reagents were separated by SDS-PAGE and transferred to polyvinylidene difluoride membrane. The levels of Akt activation were probed by immuno-blotting analyses using anti-phosphate T308 PKB antibodies (1:1000) and anti-phosphate S473 PKB antibodies (1:1000). At least three independent experiments were performed for each Western blot.
# [1] = tested on: OVA-specific IgG1 antibodies; test: Oral ovalbumin immunization, serum OVA-IgG1; assay type: in vivo; conditions: WT mice, oral gavage 50 mg/kg, versus vehicle
# [2] = tested on: CD4+CD25− (Tconv) proliferation in the presence Tregs; test: In vitro Treg suppression assay of Tconv proliferation; assay type: cell-based, mice; conditions: assay repeated in the presence of ESI-09; compared with Epac1 KO outcome
# Text: The suppressive potency of WT and Epac1 KO Tregs was examined using an in vitro assay that examines CD4+CD25− (Tconv) proliferation in the presence Tregs. Epac1 KO Tconv and WT Tconv proliferated at the same rate when cultured alone. The addition of WT Tregs suppressed the proliferation of both cell populations to the same extent, while the addition of Epac1 KO Tregs suppressed the proliferation of Epac1 KO Tconv to a much lesser degree than it did WT Tconv's.
smiles,measurement,setting,value
"CC(C)(C)c1cc(C(=O)C(C#N)=NNc2cccc(Cl)c2)no1 [ESI-09, 3-(5-Tert-Butyl-Isoxazol-3-Yl)-2-[(3-Chlorophenyl)-Hydrazono]-3-Oxo-Propionitrile]",Relative Potency (RA),"EPAC2; RA = IC50, cAMP/IC50, compound",3.9
same,IC50,"EPAC2; read-out: Apparent IC50, competing with 8-NBD-cAMP in binding EPAC2",10 ± 1.2 µM
same,EPAC1-mediated Akt phosphorylation (T308 and S473),EPAC1,completely blocked
same,serum OVA-specific IgG1 antibodies,[1],significantly higher; also recorded: increases
same,Tregs mediated suppression of Tconv,[2],the outcome was similar
